Results as given in patent US12485174B2, “HDAC6-activated macrophages, compositions, and uses thereof” (The George Washington University, A Congressionally …, priority 2019, dated 2025).

Columns and labels:
[1] = system: bone marrow derived macrophages; assay: Gene expression of polarization markers, cytokines and antigen processing genes in macrophages by quantitative real-time PCR; format: cell-based, mouse
Protocol: Quantitative analysis of gene expression. Total RNA was isolated from cells following the manufacturer's instructions of QIAzol lysis reagent (Qiagen, 79306). RNA quantification was done using a NanoDrop One spectrophotometer (NanoDrop Technologies). Samples with absorbance at 260/280 nm ratios over 1.9 were used for cDNA synthesis with the iScript cDNA synthesis kit (Bio-Rad, 1708891). Synthesized cDNA from 1 μg of total RNA was diluted 1:10 with nuclease-free water. The quantitative PCR analysis was performed using iQ SYBR Green Supermix (Bio-Rad, 1708882) on a CFX96 real-time system (Bio-Rad). Gene expression analysis was performed using the 2^−ΔΔCt method, and target mRNA levels were normalized to GAPDH expression. Cycling conditions were used as per the manufacturer's instructions. Single PCR product amplification was confirmed by melting curve analysis in all the experiments performed.
(§1) Bone marrow derived macrophages: For macrophage isolation, bone marrow from 6-12 weeks old C57BL/6 mouse was used following an IACUC approved protocol. Briefly, femurs and tibia bones were isolated after removing the skeletal muscles. The bone marrow was flushed with RPMI complete medium supplemented with non-essential amino acids. A single-cell suspension of bone marrow was prepared with repeated pipetting and incubated with 20 ng/mL of mouse recombinant M-CSF (Biolegend) at 37° C. for 4 days to differentiate into macrophages.
Further validation of M2 polarization markers at gene expression levels by quantitative real-time PCR indicate that Arginase I, IL-10 and TGFβ, which are tumor-promoting factors, were decreased. FIG. 9, FIG. 10, and FIG. 11. The expression of M1 polarization markers and anti-tumor, pro-inflammatory cytokines such as TNFα and IL-1B were increased. FIG. 12 and FIG. 13.

[2] = system: Bone marrow derived macrophages (BMDMs); assay: Polarization of bone marrow derived macrophages to M1 (LPS/IFNγ) or M2 (IL4/IL13) phenotype by flow cytometry; format: cell-based, mouse
Protocol: as §1
(§2) Flow cytometry: Flow cytometry was performed following the protocol described previously. Knox et al., Sci Rep. 2019 Oct. 10; 9(1):14824. doi: 10.1038/s41598-019-51403-6. Briefly, mice were euthanized following the IACUC protocol, and tumor cells were processed into a single cell suspension for analysis by flow cytometry with tumor digestion buffer. The following antibodies were used to stain cell surface markers expressed by different immune cells. All the antibodies were purchased from Biolegend (San Diego, CA) unless otherwise specified. Myeloid cell surface markers are as follows: APC anti-mouse CD80 (clone 16-10A1), PE/Cy7 anti-mouse CD206 (MMR) (clone C068C2), APC/Fire™ 750 anti-mouse CD45.2 (clone 104), FITC anti-mouse H-2 (clone M1/42), Brilliant Violet 785™ anti-mouse F4/80 (clone BM8), and Alexa Fluor® 700 anti-mouse CD3 (clone 17A2). To distinguish between MHCI and MHCI-bound to SIINFEKL, we used APC anti-mouse H-2Kb bound to SIINFEKL antibody (clone 25-D1.16). Multi-color flow data acquisition was performed on BD Celesta, and data analysis was performed with FlowJo software (version 10.3). Statistical analyses were performed with GraphPad Prism Software (version 7.03).
Bone marrow derived macrophages (BMDMs) isolated from femur and tibia of C57BL/6 mouse were differentiated into macrophages with M-CSF. These naïve macrophages were pre-treated with NextA and polarized to M1 macrophages with LPS/IFNγ or M2 macrophages with IL4/IL13.

[3] = system: SM1-OVA murine melanoma cells; assay: MHCI and MHCI-SIINFEKL levels in SM1-OVA melanoma cells by flow cytometry; format: cell-based, mouse; conditions: for MHC-I mediated SIINFEKL antigen presentation: over time
Protocol: FIG. 3 is a bar graph showing the MHCI and MHCI-SIINFEKL levels after SM1-OVA (SM1 cells expressing OVA peptide) melanoma cells were treated with 5 μM NextA for 24 hours. MHCI and MHCI-SIINFEKL levels were measured by FACS.
FIG. 25 is a panel of four bar graphs showing the MHCI-SIINFEKL levels when SM1 cells stably expressing OVA (SM1-OVA cells) peptide are exposed to 4 Gy of radiation, NextA, or a combination at the times indicated. MHC-I mediated SIINFEKL antigen presentation was measured by flow cytometry.
Cell culture: SM1 murine melanoma cells were obtained from Dr. A. Ribas at the University of California, Los Angeles, and cultured in an incubator in RPMI 1640, 1% penicillin-streptomycin, and 10% fetal bovine serum at 37° C. with 5% CO2.
as §2
The combination of radiation and HDAC6 inhibition increases antigen presentation in a time dependent manner. […] Radiation with HDAC6 inhibition increases antigen presentation in tumor cells. FIG. 25. The sequencing of NextA and radiation treatment for effective antigen presentation in tumor cells is show in FIG. 26.

[4] = system: Macrophages
[5] = system: bone marrow-derived macrophages; assay: SIINFEKL antigen cross-presentation (XPT) by polarized bone marrow derived macrophages, MHCI-SIINFEKL antibody, FACS; format: cell-based, mouse; conditions: M1 polarized macrophages pre-treated with NextA, OVA peptide 24 hours
Protocol: FIG. 1 is a line graph showing the SIINFEKL antigen levels derived from OVA peptide and detected by MHCI-SIINFEKL specific antibody as measured by FACS in bone marrow-derived macrophages from wild type or HDAC6 KO (knockout) mice. Macrophages were pre-treated with Nexturastat A (NextA) 5 μM and then polarized for 24 hours.
FIG. 2 is a graph showing the MHCI-SIINFEKL levels in polarized macrophages derived from wild-type mice pre-treated with NextA and incubated with OVA peptide for 24 hours.
as §1, with “macrophages. […]” for “macrophages.”
Endogenous peptides are usually presented through MHC-I to CD8 T-cells and exogenous (from other cells such as tumors) peptides through MHC-II to CD4 T-cells. […] Taking advantage of a highly specific antibody recognizing MHC-I loaded with SIINFEKL peptide, efficiency of antigen XPT was determined. […]

[6] = M1 macrophages compared to M0 after treatment
[7] = pre-treated polarized macrophages

SMILES: CCCCN(Cc1ccc(C(=O)NO)cc1)C(=O)Nc1ccccc1 [NextA, Nexturastat A]
- IL1 beta expression (M1 pro-inflammatory cytokine) ([1]; M0 macrophages): increases
- IL10 expression (M2 anti-inflammatory cytokine) ([1]; M0 macrophages): decreased
- IL12 expression (M1 pro-inflammatory cytokine) ([1]; M0 macrophages): increases
- TGF beta expression (M2 anti-inflammatory cytokine) ([1]; M0 macrophages): decreased
- TNF alpha expression (M1 pro-inflammatory cytokine) ([1]; M0 macrophages): increases
- ERAP1 gene expression [1, 6]: increased
- TAP1 gene expression [1, 6]: increased
- TAP2 gene expression [1, 6]: increased
- TAPBP gene expression [1, 6]: increased
- Arginase I gene expression (M2 polarization marker) [1, 7]: decreased
- IL-1B gene expression (M1 marker) [1, 7]: increased
- IL-10 gene expression (M2 marker) [1, 7]: decreased
- TGFβ gene expression (M2 marker) [1, 7]: decreased
- TNFα gene expression (M1 marker) [1, 7]: increased
- pro-tumoral M2 phenotype of macrophages ([2]; data not shown): reduced
- polarization of M2 macrophages ([2]; pre-treatment of naïve macrophages, then IL4/IL13): decreased
- polarization of M1 macrophages ([2]; pre-treatment of naïve macrophages, then LPS/IFNγ): did not affect
- presence of MHC I ([3]; 5 μM NextA for 24 hours): increased
- presence of SIINFEKL-loaded MHC-I ([3]; 5 μM NextA for 24 hours): increased
- MHC-I mediated SIINFEKL antigen presentation ([3]; NextA alone): time dependent increases
- MHC-I mediated SIINFEKL antigen presentation ([3]; NextA in combination with 4 Gy of radiation): time dependent increases
- concentration over which high cytotoxicity is induced [4]: over 5 μM
- M1 XPT (cross-presentation of SIINFEKL peptide by MHC-I) [5]: increased
